Test results from paper PMC10528385 (Antiviral research, 2023).

Target: NA of A/Washington/01/2007 A(H3N2), WT (Influenza A virus, UniProt A7UPN3)
Experiment: biochemical

SMILES: CC(=O)N[C@H]1[C@H]([C@H](O)[C@H](O)CO)OC(C(=O)O)=C[C@@H]1N=C(N)N [Zanamivir, zanamivir]
- IC50: 1.1 ± 0.1 nM
